“And” between values parts separate entries of the source, which are not always exact repeats. Equal entries are not always repeated. “Also recorded” adds a separate entry of the source.
Legend:
[1] = target: T1, human olfactory receptor OR1A1 (Homo sapiens, UniProt Q9P1Q5); assay: Dual-Glo luciferase assay of olfactory receptor activation (agonist dose-response); format: cell-based; conditions: for EC50: OR1A1 response, best-fit value with 95% confidence interval, EC50 = ligand concentration for half-maximal response; for agonist activity / response of OR1A1 (in words): luciferase assay, normalized responses
T1 construct: expressed in transfected cells; host or cells: HEK293T-derived cells
T1 sequence (Q9P1Q5 1-309): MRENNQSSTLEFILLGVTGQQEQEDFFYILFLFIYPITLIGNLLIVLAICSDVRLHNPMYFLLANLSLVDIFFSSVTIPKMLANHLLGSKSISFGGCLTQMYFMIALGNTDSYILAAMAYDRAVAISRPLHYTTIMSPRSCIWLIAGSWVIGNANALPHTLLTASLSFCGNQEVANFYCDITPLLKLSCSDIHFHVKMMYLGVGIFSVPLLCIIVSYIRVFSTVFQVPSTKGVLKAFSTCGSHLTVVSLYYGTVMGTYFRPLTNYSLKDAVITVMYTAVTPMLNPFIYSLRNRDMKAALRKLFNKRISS
Description: Olfactory receptor activation was evaluated using the Dual-Glo Luciferase Assay System (Promega (Beijing) Biotech Co., Ltd., Beijing, China). HEK293T-derived cells were maintained in minimal essential medium (Sigma) containing 10% fetal bovine serum (Sigma) (M10), 500 µg/mL penicillin–streptomycin (Invitrogen), and 6 µg/mL amphotericin B (Sigma) in a 37 °C incubator with 5% CO2. After culturing to a desired confluence, the cells were plated on 96-well plates (Corning Inc., Kennebunk, ME, USA). For each 96-well plate, 1 μg of CRE-luciferase, 0.5 μg of pRL-SV40, 0.5 μg of OR, 0.5 μg of RTP1S, and 0.25 μg of M3R were transfected using the transfection reagent Lipofectamine2000 (Invitrogen, Life Technologies Corp., Carlsbad, CA, USA). Twenty-four hours post transfection, the transfection media were removed, and the cells were rinsed with 50 μL PBS buffer (pH 7.4) per well. The cells were then stimulated with 25 μL 1% (v/v) ligand samples diluted in CD293 stimulation medium (Gibco Brand, ThermoFisher Biochemical Products (Beijing) Co., Ltd., Beijing, China). Four hours post stimulation, firefly luciferase (FL) and Renilla luciferase (RL) activities were measured following manufacturer’s protocols, using a Synergy H1 plate reader (BioTek Instruments, Winooski, VT, USA). Normalized luciferase activity was calculated using the formula: FL/RLX-FL/RLXC, where FL/RLX is the response to the ligands, FL/RLXC is the basal value of the same OR. Each experiment was repeated at least 3 times and error bars indicate standard error mean. Data were analyzed with GraphPad Prism.

OR1A1 olfactory receptor = conditions: cited from earlier work; for EC50: enantiomers of citronellol on OR1A1, already reported, reference number not given; for agonist quality on OR1A1 (in words): known OR1A1 agonists, Introduction and Figure 1, reference numbers not given

Compound	EC50 [1]	agonist activity / response of OR1A1 (in words) [1]	further results
C[C@@H](O)C#CC#Cc1ccc(C(C)(C)C)cc1 [(R)-21]	7.45 µM and 7.41 µM	strongest agonist effect	
CC(=O)c1cccc(C#CC#CC#CC(C)(C)C)c1 [compound 19]		did not result in an active compound; also recorded: weak agonist	
CC(C)(C)C#CC#Cc1cccc2c1CCC2=O [compound 17]		micromolar range potency with modest to good agonist efficacy	
CC(C)(C)C#CC#Cc1ccc2c(c1)C(=O)CC2 [compound 16]		not active	
CC(=O)C#CC#Cc1ccc(C(C)(C)C)cc1 [compound 15]		essentially inactive	
CC(C)=CCC[C@@H](C)CCO [(R)-7, citronellol]			EC50 (OR1A1 olfactory receptor): 82.5 µM
CC(C)(O)C#CC#Cc1ccc(C(C)(C)C)cc1 [compound 22]		weakest agonist in this alcohol series	
CC(C)(C)c1ccc(C#CC#CCO)cc1 [compound 20]	42.7 µM	strong agonist activity	
CC(O)C#CC#Cc1ccc(C(C)(C)C)cc1 (centres unmarked) [compound 21]	43.7 µM	much stronger interaction with the OR1A1 receptor than the corresponding ketone 15	
CC(C)=CCCC(C)CCO (centres unmarked) [compound 7, citronellol]			agonist quality on OR1A1 (in words) (OR1A1 olfactory receptor): good agonist
CC(C)(C)C#CC#Cc1ccc2c(c1)COC2 [compound 18]		displayed a stronger response	
CC(=O)c1c(C)c([N+](=O)[O-])c(C(C)(C)C)c([N+](=O)[O-])c1C [compound 2, musk ketone]			agonist quality on OR1A1 (in words) (OR1A1 olfactory receptor): very poor agonists
CC(=O)c1ccc(C#CC#CC(C)(C)C)cc1 [compound 13]	36.3 µM	activated OR1A1	
C[C@@H]1CCCCCCCCCCCCC(=O)C1 [compound 1, muscone]			agonist quality on OR1A1 (in words) (OR1A1 olfactory receptor): very poor agonists
CC(C)=CCC[C@H](C)CCO [(S)-7, citronellol]			EC50 (OR1A1 olfactory receptor): 92.6 µM
C[C@H](O)C#CC#Cc1ccc(C(C)(C)C)cc1 [(S)-21]	24 µM		
CC(=O)c1cccc(C#CC#CC(C)(C)C)c1 [compound 14]	35.5 µM	activated OR1A1	
CCCCCC(=O)C(C)C(C)=O (centres unmarked) [compound 9, 3-methyl-2,4-nonanedione]			agonist quality on OR1A1 (in words) (OR1A1 olfactory receptor): extremely potent agonist

Source: PMC12207589, “Exploring Linear mono-, bis- and tris-Acetylene Containing Agonists of the Human Olfactory Receptor OR1A1” (Journal of Medicinal Chemistry, 2025)
